Measured values taken from PMC9743095 (Journal of Medicinal Chemistry, 2022).
Read-outs that look alike come from different tables or passages of the source.

Experiments:
[1] = Plasma stability; assay type: in vitro ADME; details: mouse plasma
Procedure: Plasma samples (10 mL of human, beagle dog, mouse, or rats from Sera laboratories, U.K.) were treated with and without 1 μM of EHNA, after which 20 μM concentration of each drug (3′dA and ProTides) was added and incubated for 2 h at 37 °C with 5% CO2. After incubation, 100 μL of each sample was taken and 300 μL of 100% methanol was added and left on ice for 30 min. After 30 min, the mixture was centrifuged (14 000 rpm, 4 °C, 10 min), and the supernatant was transferred to new tubes and evaporated under SpeedVac. Then, the dried extract was reconstituted in 100 μL of 10% acetonitrile, then transferred to LC-MS vials, and 10 μL was injected into the UPLC-MS/MS system.

[2] = test system: HT29; assay: cells; assay type: cell-based; details: for MI%: HT29, maximum inhibitory effect over concentration range; for CC50: Homo sapiens, HT-29, 72 h, read-out: lC50
Procedure: (§1) The assay was contracted and carried out by WuXi AppTec (Shanghai) Co., Ltd. The tumor cell lines CCRF-CEM, HL-60, KG-1, MOLT-4, K562, MV4-11, THP-1, HEL92.1.7, NCI-H929, RPMI-8226, Jurkat, Z138, RL, HS445, HepG2, MCF-7, Bx-PC-3, HT29, MIA PaCa-2, and SW620 were seeded at cell densities of […] 10^3 cells/well in a 96-well plate the day before drug incubation. Then, the plates were incubated for 72 h with the different concentrations of compound to be tested. After the incubation period, 50 μL of MTS was added and the tumor cells were incubated for 4 h at 37 °C. The data were read and collected by a Spectra Max 340 absorbance microplate reader. The compounds were tested in duplicate with nine serial concentrations (3.16-fold titrations with 198 μM as the highest concentration), and the data were analyzed by XLfit software.

[3] = test system: MV4-11; assay: cells; assay type: cell-based; details: for CC50: Homo sapiens, MV4-11, 72 h, read-out: LC50; for MI%: MV4-11, maximum inhibitory effect over concentration range
Procedure: as §1

[4] = test system: MCF-7; assay: cells; assay type: cell-based; details: Homo sapiens, MCF7, 72 h; for CC50: read-out: LC50; for Emax: read-out: MI%
Procedure: as §1

[5] = test system: BxPC-3; assay: cells; assay type: cell-based; details: for MI%: BxPC-3, maximum inhibitory effect over concentration range; for CC50: Homo sapiens, BXPC-3, 72 h, read-out: LC50
Procedure: as §1

[6] = Plasma stability; assay type: in vitro ADME; details: for half-life at 24 h, 20 µM: human, plasma
Procedure: […] After incubation, 100 μL of each sample was taken and 300 μL of 100% methanol was added and left on ice for 30 min. After 30 min, the mixture was centrifuged (14 000 rpm, 4 °C, 10 min), and the supernatant was transferred to new tubes and evaporated under SpeedVac. Then, the dried extract was reconstituted in 100 μL of 10% acetonitrile, then transferred to LC-MS vials, and 10 μL was injected into the UPLC-MS/MS system.

[7] = test system: KG1a leukemic stem cells (Lin–/CD34+/CD38–/CD123+); assay: Leukemic stem cell targeting in KG1a cultures (flow cytometry); assay type: cell-based, human; details: 72 h, LSC vs bulk tumor
Procedure: The acute myeloid leukemia (AML) KG1a cell line was maintained in RPMI medium (Invitrogen, Paisley, U.K.) supplemented with 100 units/mL penicillin, 100 μg/mL streptomycin, and 20% FBS. […] In addition, control cultures were carried out to which no drug was added. The cells were subsequently harvested by centrifugation and were analyzed by flow cytometry using the Annexin V assay. All experiments were performed in triplicate. LC50 values (the concentration of compound required to kill 50% of the cells in culture) were calculated by nonlinear regression modeling using GraphPad Prism software and are shown as mean ± standard error of the mean (SEM) for each replicate data set.
Cells were then harvested, and KG1a cells were labeled with anti-CD34 (FITC), anti-CD38 (PE), and anti-CD123 (PERCP cy5). The subpopulation expressing a leukemic stem cell (LSC) phenotype was subsequently identified and was expressed as a percentage of all viable cells left in the culture. The percentages of stem cells remaining were then plotted on a dose–response graph, and the effects of the ProTides were compared with the parental nucleoside to determine if they preferentially target cancer stem cells

[8] = Metabolic stability in cryopreserved human hepatocytes; assay type: in vitro ADME; details: for hepatocyte CLint at 1 μM: pH 7.3, read-out: Clint (intrinsic clearance)
Procedure: The assay was contracted and performed by Cerep (Seattle, WA Laboratories, 15318 N. E. 95th Street Redmond, WA, 98052) according to the published procedure (Cerep ref 1432). Pooled cryopreserved hepatocytes were thawed, washed, and resuspended in Krebs–Heinslet buffer (pH 7.3). The reaction was initiated by adding the test compound (1 μM final concentration) into cell suspension and incubated in a final volume of 100 μL on a flat-bottom 96-well plate for 0 and 60 min, respectively, at 37 °C/5% CO2. The reaction was stopped by adding 100 μL of acetonitrile into the incubation mixture. Samples were then mixed gently and briefly on a plate shaker, transferred completely to a 0.8 mL V-bottom 96-well plate, and centrifuged at 2550g for 15 min at room temperature. Each supernatant (150 μL) was transferred to a clean cluster tube, followed by high-performance liquid chromatography–tandem mass spectrometry (HPLC-MS/MS) analysis on a Thermo Electron triple quadrupole system.

[9] = pH 7.3, read-out: t1/2 (half-life)

## Nc1ncnc2c1ncn2[C@@H]1O[C@H](CO)C[C@H]1O [3′-dA, 3′-Deoxyadenosine, reference compound]
[1]
  half-life at 20 μM: 25 min
[2]
  MI%: 44%
  CC50: > 198 µM
[3]
  CC50: > 198 µM
  MI%: 1%
[4]
  CC50: 34.2 µM
[4]; MCF-7, maximum inhibitory effect over concentration range
  Emax: 78%
[5]
  MI%: 22%
  CC50: > 198 µM
[6]; human plasma, with EHNA
  remaining after 24 h: 42.1%
[6]; human plasma, without EHNA
  time until completely metabolized: 4 h
[6]; with EHNA
  half-life at 24 h, 20 µM: 252 min
[6]; without EHNA
  half-life at 24 h, 20 µM: 62 min
[7]
  effect on proportion of leukemic stem cells (LSCs): increased selectivity and potency against the putative leukemic stem cells

## C[C@H](NP(=O)(OC[C@@H]1C[C@@H](O)[C@H](n2cnc3c(N)ncnc32)O1)Oc1ccccc1)C(=O)OCc1ccccc1 (stereo partly drawn) [Compound 7a, (Rp)- and (Sp)-3′-Deoxyadenosine 5′-O-phenyl-(benzoxy-L-alaninyl)-phosphate]
[1]
  concentration detected after 30 s of incubation: 0.5 ng/mL
[2]
  MI%: 93%
  CC50: 13.4 µM
[3]
  CC50: 2.1 µM
  MI%: 99%
[4]
  CC50: 3.07 µM
  Emax: 94%
[5]
  MI%: 81%
  CC50: 23.6 µM
[6]; human plasma
  concentration detected after 30 s of incubation: 10000 ng/mL
[6]; human plasma, up to 4 h
  change in plasma concentration: no change in plasma concentration
[8]; pooled cryopreserved hepatocytes
  hepatocyte CLint at 1 μM: 22.6 µL/min/1e6 cells
[8]; pooled cryopreserved hepatocytes, pH 7.3, read-out: t1/2 (half-life)
  half-life at 1 h, 1 µM: 48.1 min
[7]
  effect on proportion of leukemic stem cells (LSCs): significantly reducing the LSC population to a greater extent than the parent nucleoside at concentrations above 1 μM

## CCOC(=O)CCc1ccccc1OP(=O)(N[C@@H](C)C(=O)OCc1ccccc1)OC[C@@H]1C[C@@H](O)[C@H](n2cnc3c(N)ncnc32)O1 (stereo partly drawn) [Compound 7e]
[2]
  MI%: 89%
  CC50: 25.2 µM
[3]
  CC50: 3.27 µM
  MI%: 100%
[4]
  CC50: 15.8 µM
  Emax: 78%
[5]
  MI%: 78%
  CC50: 60.9 µM
[8]
  hepatocyte CLint at 1 μM: 41.1 µL/min/1e6 cells
[8]; [9]
  half-life at 1 μM: 26 min
  half-life at 1 h, 1 µM: 25.6 min
